A word on the IC50: it is the midpoint of a concentration-inhibition curve.

Sequence of recombinant human ACC2 (O00763 27-2458): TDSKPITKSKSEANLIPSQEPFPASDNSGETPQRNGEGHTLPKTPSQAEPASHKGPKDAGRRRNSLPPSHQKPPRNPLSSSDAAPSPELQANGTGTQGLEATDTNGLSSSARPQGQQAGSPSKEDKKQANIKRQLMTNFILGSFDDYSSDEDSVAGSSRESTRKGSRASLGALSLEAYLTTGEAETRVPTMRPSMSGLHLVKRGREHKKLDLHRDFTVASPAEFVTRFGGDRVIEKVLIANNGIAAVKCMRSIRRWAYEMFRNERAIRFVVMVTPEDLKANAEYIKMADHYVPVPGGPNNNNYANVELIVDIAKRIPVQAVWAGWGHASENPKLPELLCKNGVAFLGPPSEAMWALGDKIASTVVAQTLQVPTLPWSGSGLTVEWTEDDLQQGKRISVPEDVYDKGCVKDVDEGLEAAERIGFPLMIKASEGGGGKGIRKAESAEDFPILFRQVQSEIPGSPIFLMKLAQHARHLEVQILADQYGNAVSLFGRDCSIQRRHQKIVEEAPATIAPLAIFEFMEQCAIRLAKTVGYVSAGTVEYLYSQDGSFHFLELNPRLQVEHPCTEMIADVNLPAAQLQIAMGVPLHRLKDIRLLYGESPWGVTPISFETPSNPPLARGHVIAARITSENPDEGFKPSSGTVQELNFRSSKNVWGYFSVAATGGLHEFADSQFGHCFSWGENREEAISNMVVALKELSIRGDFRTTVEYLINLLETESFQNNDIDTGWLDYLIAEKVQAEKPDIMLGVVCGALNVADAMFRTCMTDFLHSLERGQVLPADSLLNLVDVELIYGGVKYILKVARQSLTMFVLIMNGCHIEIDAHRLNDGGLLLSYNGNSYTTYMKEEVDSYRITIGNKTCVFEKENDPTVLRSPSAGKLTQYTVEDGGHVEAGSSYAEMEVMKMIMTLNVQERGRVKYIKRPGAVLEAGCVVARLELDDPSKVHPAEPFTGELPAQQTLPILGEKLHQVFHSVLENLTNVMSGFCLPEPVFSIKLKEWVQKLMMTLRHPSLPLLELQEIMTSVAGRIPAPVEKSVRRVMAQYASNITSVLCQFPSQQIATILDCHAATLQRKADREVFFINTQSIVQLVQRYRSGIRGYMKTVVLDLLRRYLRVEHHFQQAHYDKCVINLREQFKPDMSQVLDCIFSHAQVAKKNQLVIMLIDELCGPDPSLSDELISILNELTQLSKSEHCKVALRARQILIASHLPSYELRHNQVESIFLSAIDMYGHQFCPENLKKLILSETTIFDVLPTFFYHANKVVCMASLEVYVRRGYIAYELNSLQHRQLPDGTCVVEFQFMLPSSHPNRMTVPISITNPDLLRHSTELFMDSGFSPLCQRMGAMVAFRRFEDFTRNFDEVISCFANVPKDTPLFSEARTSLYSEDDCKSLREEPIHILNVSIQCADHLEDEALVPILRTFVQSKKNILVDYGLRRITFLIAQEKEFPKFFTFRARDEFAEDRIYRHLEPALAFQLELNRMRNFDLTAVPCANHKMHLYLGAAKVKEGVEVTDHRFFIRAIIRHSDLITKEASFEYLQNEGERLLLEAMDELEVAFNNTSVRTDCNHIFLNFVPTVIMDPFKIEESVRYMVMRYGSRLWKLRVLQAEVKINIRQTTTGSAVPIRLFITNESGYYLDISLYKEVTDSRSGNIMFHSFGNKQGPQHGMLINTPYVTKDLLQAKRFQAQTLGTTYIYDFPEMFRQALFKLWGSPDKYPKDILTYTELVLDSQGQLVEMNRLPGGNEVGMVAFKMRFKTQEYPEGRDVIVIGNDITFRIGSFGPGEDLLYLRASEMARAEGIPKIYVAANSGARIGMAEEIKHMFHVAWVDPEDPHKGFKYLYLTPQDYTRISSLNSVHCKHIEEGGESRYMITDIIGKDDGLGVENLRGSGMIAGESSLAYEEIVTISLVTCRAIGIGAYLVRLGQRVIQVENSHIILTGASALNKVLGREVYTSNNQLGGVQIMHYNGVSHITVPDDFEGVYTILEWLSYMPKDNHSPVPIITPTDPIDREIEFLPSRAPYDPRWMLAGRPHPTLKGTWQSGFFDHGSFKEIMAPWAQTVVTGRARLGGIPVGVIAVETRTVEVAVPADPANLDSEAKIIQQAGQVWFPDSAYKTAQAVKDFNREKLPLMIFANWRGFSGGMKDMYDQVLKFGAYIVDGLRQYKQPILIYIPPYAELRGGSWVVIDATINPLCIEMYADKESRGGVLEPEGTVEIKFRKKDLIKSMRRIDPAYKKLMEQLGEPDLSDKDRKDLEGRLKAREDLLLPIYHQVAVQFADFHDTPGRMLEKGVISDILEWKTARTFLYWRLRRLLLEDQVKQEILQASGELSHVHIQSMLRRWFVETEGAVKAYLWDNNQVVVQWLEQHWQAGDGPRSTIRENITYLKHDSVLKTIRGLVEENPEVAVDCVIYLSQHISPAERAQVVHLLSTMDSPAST

For this test, the target named is recombinant human ACC2 (Homo sapiens (Human), UniProt O00763). Briefly: Measurement of inhibitory activity on human ACC2 (MALDI-TOF MS, acetyl CoA to malonyl CoA conversion). In kind it is biochemical. Conditions: Tables 155-159. In short, it runs like this:
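His-tagged human ACC2 (residues 27–2458) from baculovirus-infected Sf-9 cells was preincubated 1 h in pH 7.4 HEPES-KOH buffer with MgCl2, 6-10 mM potassium citrate, glutathione and BSA. Substrate solution held 1 mM ATP, 0.8 mM acetyl CoA and 25-50 mM bicarbonate. After 1–3 h at room temperature, malonyl CoA/(malonyl+acetyl CoA) was read by negative-mode MALDI-TOF MS; citrate, bicarbonate and time varied by enzyme lot.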
As for `CC(=O)N[C@@H](C)CO[C@H]1CC[C@H](Oc2ncc3nc(OC4CC(F)(F)C4)sc3c2F)CC1` [Compound I-252], the IC50 turned out to be 8 nM. Turning to `CC(=O)N[C@@H](C)CO[C@H]1CC[C@H](Oc2ncc3nc(OCC4CC4(F)F)sc3c2F)CC1` (stereo partly drawn) [Compound I-253], the IC50 was found to be 11 nM.

For the compound `CC(=O)N[C@@H](C)CO[C@H]1C[C@H](COc2ccc3nc(N4CC(F)(F)C(F)(F)C4)sc3n2)C1` [Compound I-254], the half-inhibitory concentration (IC50) is 20 nM.

`CC(=O)N[C@@H](C)CO[C@H]1C[C@H](COc2ccc3nc(N4CCC4)sc3n2)C1` [Compound I-255]: the IC50 was 24 nM.

As for `CC(=O)N[C@@H](C)CO[C@H]1C[C@H](COc2ccc3nc(N4CC(F)C4)sc3n2)C1` [Compound I-256], the IC50 is 39 nM. Next, `CC(=O)N[C@@H](C)CO[C@H]1C[C@H](COc2ccc3nc(N4CCCC4)sc3n2)C1` [Compound I-257]: 14 nM. Regarding `CC(=O)N[C@@H](C)CO[C@H]1C[C@H](COc2cc(C)c3nc(OC4CC4)sc3n2)C1` [Compound I-258], the IC50 came to 99 nM.

Take `CC(=O)N[C@@H](C)CO[C@H]1CC[C@H](Oc2cc3sc(O[C@H]4CCOC4)nc3cn2)CC1` [Compound I-259]: the IC50 came out at 86 nM. Next, `CC(=O)N[C@@H](C)CO[C@H]1CC[C@H](Oc2cc3sc(O[C@@H]4CCOC4)nc3cn2)CC1` [Compound I-260]: 102 nM; `CC(=O)N[C@@H](C)CO[C@H]1CC[C@H](Oc2cc3sc(OCC4(C)CC4)nc3cn2)CC1` [Compound I-261]: 17 nM.

On to `CC(=O)N[C@@H](C)CO[C@H]1CC[C@H](Oc2cc3sc(OC[C@@H](C)F)nc3cn2)CC1` [Compound I-262], for which the IC50 was found to be 53 nM.

For the compound `CC(=O)N[C@@H](C)CO[C@H]1CC[C@H](Oc2cc3sc(OCC(C)(C)C#N)nc3cn2)CC1` [Compound I-263], the IC50 is 862 nM. In the case of `CC(=O)N[C@@H](C)CO[C@H]1CC[C@H](Oc2cc3sc(OCC4(C#N)CC4)nc3cn2)CC1` [Compound I-264] it was 372 nM. Next, `CC(=O)N[C@@H](C)CO[C@H]1C[C@H](COc2ccc3nc(N4CCCCC4)sc3n2)C1` [Compound I-265]: 16 nM; `CC(=O)N[C@@H](C)CO[C@H]1C[C@H](COc2nc3sc(N4CCC4)nc3cc2F)C1` [Compound I-266]: 36 nM. In the case of `CC(=O)N[C@@H](C)CO[C@H]1C[C@H](COc2nc3sc(N4CC(F)C4)nc3cc2F)C1` [Compound I-267] it was 58 nM.

Take `CC(=O)N[C@@H](C)CO[C@H]1C[C@H](COc2nc3sc(N4CC(F)(F)C4)nc3cc2F)C1` [Compound I-268]: the IC50 was 42 nM. Next, `CC(=O)N[C@@H](C)CO[C@H]1C[C@H](COc2ccc3nc(N4CCC4)sc3c2F)C1` [Compound I-269]: 125 nM; `CC(=O)N[C@@H](C)CO[C@H]1C[C@H](COc2ccc3nc(N4CCCC4)sc3c2F)C1` [Compound I-270]: 116 nM; `CC(=O)N[C@@H](C)CO[C@H]1CC[C@H](Oc2cc3sc(O[C@H]4C[C@@H](C#N)C4)nc3cn2)CC1` [Compound I-271]: 83 nM. As for `C[C@@H](CO[C@H]1CC[C@H](Oc2ncc3nc(OC4CC4)sc3c2F)CC1)NC(=O)CO` [Compound I-272], the half-inhibitory concentration (IC50) turned out to be 123 nM. In the case of `CC(=O)N[C@@H](C)CO[C@H]1CC[C@H](Oc2ncc3nc(OC4COC4)sc3c2F)CC1` [Compound I-273] it was 35 nM; in that of `CC(=O)N[C@@H](C)CO[C@H]1CC[C@H](Oc2ncc3nc(OCC4(F)COC4)sc3c2F)CC1` [Compound I-274], 90 nM.

Consider `CC(=O)N[C@@H](C)CO[C@H]1CC[C@H](Oc2ncc3nc(OCC4(C#N)CC4)sc3c2F)CC1` [Compound I-275], for which the IC50 worked out at 156 nM. Regarding `CC(=O)N[C@@H](C)CO[C@H]1CC[C@H](Oc2ncc3nc(O[C@H]4CCOC4)sc3c2F)CC1` [Compound I-276], the IC50 turned out to be 13 nM. In the case of `CC(=O)N[C@@H](C)CO[C@H]1CC[C@H](Oc2ncc3nc(O[C@@H]4CCOC4)sc3c2F)CC1` [Compound I-277] it was 32 nM; in that of `CC(=O)N[C@@H](C)CO[C@H]1CC[C@H](Oc2cc(C)c3nc(N4CC(F)(F)C4)sc3n2)CC1` [Compound I-278], 87 nM.

As for `CCOc1nc2c(C)cc(O[C@H]3CC[C@H](OC[C@H](C)NC(C)=O)CC3)nc2s1` [Compound I-279], the IC50 came out at 8 nM.

Regarding `CO[C@H]1C[C@H](Oc2nc3ccc(OC[C@H]4C[C@H](OC[C@H](C)NC(C)=O)C4)nc3s2)C1` [Compound I-280], the IC50 was found to be 79 nM. `CO[C@H]1C[C@@H](Oc2nc3ccc(OC[C@H]4C[C@H](OC[C@H](C)NC(C)=O)C4)nc3s2)C1` [Compound I-281]: the IC50 stood at 41 nM. Next, `CC(=O)N[C@@H](C)CO[C@H]1C[C@H](COc2ccc3nc(N(C)CC#N)sc3n2)C1` [Compound I-282]: 892 nM; `CC(=O)N[C@@H](C)CO[C@H]1C[C@H](COc2ccc3nc(O[C@@H]4CO[C@@H]5CCO[C@@H]54)sc3n2)C1` [Compound I-283]: 984 nM. Next, `CC(=O)N[C@@H](C)CO[C@H]1C[C@H](COc2ccc3nc(N4CC5(CCC5)C4)sc3n2)C1` [Compound I-284]: 17 nM; `C[C@@H](CO[C@H]1CC[C@H](Oc2ncc3nc(OC4CC4)sc3c2F)CC1)NC(N)=O` [Compound I-285]: 38 nM. In the case of `CC(=O)N[C@@H](C)CO[C@H]1C[C@H](COc2ccc3nc(N4CC(F)(F)C4)sc3c2F)C1` [Compound I-286] it was 125 nM. As to `CC(=O)N[C@@H](C)CO[C@H]1C[C@H](COc2ccc3nc(N4CC[C@@H](F)C4)sc3n2)C1` [Compound I-287], the half-maximal inhibitory concentration (IC50) was found to be 51 nM. Next, `CC(=O)N[C@@H](C)CO[C@H]1C[C@H](COc2ccc3nc(N4CCC(C#N)C4)sc3n2)C1` (stereo partly drawn) [Compound I-288]: 759 nM; `CC(=O)N[C@@H](C)CO[C@H]1C[C@H](COc2ccc3nc(N4CC[C@H](F)C4)sc3n2)C1` [Compound I-289]: 110 nM; `C[C@@H](CO[C@H]1CC[C@H](Oc2cc3sc(OCC4CC4(F)F)nc3cn2)CC1)NC(=O)CO` (stereo partly drawn) [Compound I-290]: 82 nM.

As for `C[C@@H](CO[C@H]1CC[C@H](Oc2cc3sc(OCC4CC4(F)F)nc3cn2)CC1)NC(N)=O` (stereo partly drawn) [Compound I-291], the half-inhibitory concentration (IC50) was 32 nM.

`CC(=O)N[C@@H](C)CO[C@H]1C[C@](C)(COc2ccc3nc(OC4CC4)sc3n2)C1` [Compound I-292]: the IC50 came out at 52 nM. In the case of `CC(=O)N[C@@H](C)CO[C@H]1C[C@H](COc2ccc3nc(O[C@H]4C[C@H](O)C4)sc3n2)C1` [Compound I-293] it was 171 nM; in that of `CC(=O)N[C@@H](C)CO[C@H]1C[C@H](COc2ccc3nc(O[C@H]4C[C@@H](O)C4)sc3n2)C1` [Compound I-294], 300 nM; in that of `CC(=O)N[C@@H](C)CO[C@H]1C[C@H](COc2ccc3nc(O[C@H]4C[C@H](F)C4)sc3n2)C1` [Compound I-295], 12 nM. In the case of `CC(=O)N[C@@H](C)CO[C@H]1C[C@H](COc2ccc3nc(O[C@H]4C[C@@H](F)C4)sc3n2)C1` [Compound I-296] it was 6 nM. On to `CC(=O)N[C@@H](C)CO[C@H]1C[C@](F)(COc2ccc3nc(OCC(F)F)sc3n2)C1` [Compound I-297], for which the IC50 came out at 42 nM.

Take `CC(=O)N[C@@H](C)CO[C@H]1C[C@](F)(COc2ccc3nc(OC4CC4)sc3n2)C1` [Compound I-298]: the IC50 turned out to be 52 nM. In the case of `CC(=O)N[C@@H](C)CO[C@H]1C[C@](F)(COc2ccc3nc(OC(C)C)sc3n2)C1` [Compound I-299] it was 26 nM; in that of `CC(=O)N[C@@H](C)CO[C@H]1C[C@H](COc2ccc3nc(OCC(C)(C)O)sc3n2)C1` [Compound I-300], 165 nM. Next, `CC(=O)N[C@@H](C)CO[C@H]1C[C@H](COc2ccc3nc(OC4CC(C#N)C4)sc3n2)C1` (stereo partly drawn) [Compound I-301]: 37 nM; `CC(=O)N[C@@H](C)CO[C@H]1C[C@H](COc2ccc3nc(OCC(C)(C)C#N)sc3n2)C1` [Compound I-302]: 52 nM. In the case of `CC(=O)N[C@@H](C)CO[C@H]1C[C@H](COc2ccc3nc(Oc4ccc(F)nc4)sc3n2)C1` [Compound I-303] it was 68 nM. On to `CC(=O)N[C@@H](C)CO[C@H]1C[C@H](COc2ccc3nc(Oc4ccc(F)cn4)sc3n2)C1` [Compound I-304], for which the IC50 was 242 nM. Regarding `CC(=O)N[C@@H](C)CO[C@H]1C[C@H](COc2ccc3nc(Oc4ccc(F)cc4)sc3n2)C1` [Compound I-305], the IC50 amounted to 22 nM. Next, `CC(=O)N[C@@H](C)CO[C@H]1C[C@H](COc2ccc3nc(OC[C@@H](C)F)sc3n2)C1` [Compound I-306]: 15 nM; `CC(=O)N[C@@H](C)CO[C@H]1C[C@H](COc2ccc3nc(OC4COC4)sc3n2)C1` [Compound I-307]: 43 nM; `CC(=O)N[C@@H](C)CO[C@H]1C[C@H](COc2ccc3nc(OCC4CC4)sc3n2)C1` [Compound I-308]: 6 nM. Turning to `CC(=O)N[C@@H](C)CO[C@H]1C[C@H](COc2nccc(-c3ccc(F)cc3)c2F)C1` [Compound I-309], the half-maximal inhibitory concentration (IC50) was 24 nM. In the case of `CC(=O)N[C@@H](C)CO[C@H]1C[C@H](COc2nccc(-c3ccc(F)cc3)c2Cl)C1` [Compound I-310] it was 34 nM.

For the compound `CC(=O)N[C@@H](C)CO[C@H]1C[C@H](COc2nccc(-c3ncc(F)cn3)c2F)C1` [Compound I-311], the IC50 was found to be 106 nM. In the case of `CC(=O)N[C@@H](C)CO[C@H]1C[C@H](COc2nccc(-c3ncc(OC(C)C)cn3)c2Cl)C1` [Compound I-312] it was 401 nM. In the case of `CC(=O)N[C@@H](C)CO[C@H]1C[C@H](COc2nccc(-c3ccc(F)cc3)c2C)C1` [Compound I-313] it was 72 nM. Next, `CC(=O)N[C@@H](C)CO[C@H]1C[C@H](COc2nccc(OCC3CC3)c2Cl)C1` [Compound I-314]: 25 nM.
